Test results reported in US7427620B2, “Azole derivative useful as antifungal agents with reduced interaction with metabolic cytochromes” (Italfarmaco SPA, priority 2003, dated 2008).
≈ marks a conversion by molar mass, not a printed value. Where two headings read alike, the source gives them in different places.

Experiments:
Aspergillus fumigatus = assay: Antifungal activity, liquid phase microdilution (NCCLS M27/M38-P); format: cell-based; set-up: IC50 (minimum concentration to bring about 50% inhibition): unit not given here; details: for IC50: Aspergillus fumigatus
Experimental: (§1) Experiment A: Antifungal Activity of Compounds of the Formula (I)
(§2) The antifungal activity of the compounds of the formula (I) was determined using various strains of yeast and filamentous fungi. […] Table no.

Candida albicans [1] = assay: as above; format: cell-based
Experimental: as §1, §2

CYP3A4 = target: T1, CYP3A4 (Homo sapiens, UniProt P08684); assay: Inhibition of human cytochromes, fluorescent substrates; format: in vitro ADME; details: isoenzyme (Gentest), 37° C.
T1 construct: purchased Gentest
Experimental: (§3) Experiment B: Inhibition of Human Cytochromes by Compounds of the Formula (I)
(§4) The individual isoenzymes (Gentest) and the respective substrates were incubated in 96 well plates in buffer containing […] at 37° C. in the presence or absence of the compound under investigation. […] The degree of inhibition of each individual isoenzyme by known inhibitors was also assessed as a positive control.

CYP2D6 = target: T2, CYP2D6 (Homo sapiens, UniProt P10635); assay: as above; format: in vitro ADME; details: isoenzyme (Gentest), 37° C.
T2 construct: purchased Gentest
Experimental: as §3
as §4, with “Inhibition of the enzymatic activity of the most significant isoforms of human cytochromes by the compounds of the formula (I) was measured by using specific substrates which become fluorescent as a result of the metabolic action of a particular cytochrome isoform. The individual” for “The individual”

CYP2C19 = target: T3, CYP2C19 (Homo sapiens, UniProt P33261); assay: as above; format: in vitro ADME; details: isoenzyme (Gentest), 37° C.
T3 construct: purchased Gentest
Experimental: as §3
as §4, with “Inhibition of the enzymatic activity of the most significant isoforms of human cytochromes by the compounds of the formula (I) was measured by using specific substrates which become fluorescent as a result of the metabolic action of a particular cytochrome isoform. The individual” for “The individual”

CYP1A2 = target: T4, CYP1A2 (Homo sapiens, UniProt P05177); assay: as above; format: in vitro ADME; details: isoenzyme (Gentest), 37° C.
T4 construct: purchased Gentest
T4 sequence (P05177 1-516): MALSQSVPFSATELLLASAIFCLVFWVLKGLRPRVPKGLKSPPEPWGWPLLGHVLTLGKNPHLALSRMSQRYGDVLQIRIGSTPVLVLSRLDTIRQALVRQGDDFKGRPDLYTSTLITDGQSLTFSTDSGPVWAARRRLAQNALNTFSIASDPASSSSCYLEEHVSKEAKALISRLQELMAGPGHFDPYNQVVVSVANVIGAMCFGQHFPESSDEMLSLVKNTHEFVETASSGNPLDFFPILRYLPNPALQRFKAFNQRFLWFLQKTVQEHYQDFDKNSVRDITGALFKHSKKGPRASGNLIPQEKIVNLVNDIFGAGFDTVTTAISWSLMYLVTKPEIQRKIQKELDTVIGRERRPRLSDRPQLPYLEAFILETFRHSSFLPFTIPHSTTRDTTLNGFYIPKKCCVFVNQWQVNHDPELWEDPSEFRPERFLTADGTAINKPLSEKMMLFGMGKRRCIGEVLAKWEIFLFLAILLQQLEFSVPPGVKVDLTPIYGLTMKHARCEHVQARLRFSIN
Experimental: as §3
as §4, with “Inhibition of the enzymatic activity of the most significant isoforms of human cytochromes by the compounds of the formula (I) was measured by using specific substrates which become fluorescent as a result of the metabolic action of a particular cytochrome isoform. The individual” for “The individual”

CYP2C9 = target: T5, CYP2C9 (Homo sapiens, UniProt P11712); assay: as above; format: in vitro ADME; details: isoenzyme (Gentest), 37° C.
T5 construct: purchased Gentest
Experimental: as §3
as §4, with “Inhibition of the enzymatic activity of the most significant isoforms of human cytochromes by the compounds of the formula (I) was measured by using specific substrates which become fluorescent as a result of the metabolic action of a particular cytochrome isoform. The individual” for “The individual”

Candida glabrata = assay: Antifungal activity, liquid phase microdilution (NCCLS M27/M38-P); format: cell-based; details: for IC50 (minimum concentration to bring about 50% inhibition): Candida glabrata strain 02-0902
Experimental: as §1, §2

Candida parapsilosis = assay: as above; format: cell-based; details: for IC50 (minimum concentration to bring about 50% inhibition): Candida parapsilosis strain ATCC22019
Experimental: as §1, §2

Candida albicans [2] = assay: Mouse model of systemic candidiasis, survival; format: in vivo, CD1 mice; details: 50 mg/kg/day orally (25 mg/kg twice daily) for 10 days
Experimental: Experiment C: Study of the Efficacy of Compounds of the Formula (I) in a Mouse Model of Systemic Candidiasis.
The C. albicans isolate was cultured for 24 h in yeast dextrose broth. The blastospores were recovered by centrifugation, repeatedly washed in sterile saline solution and the inoculum adjusted to the desired concentration. The inoculum was verified by a subsequent count of CFU/ml on Sabouraud plates.
The mice were then inoculated intravenously (0.2 ml/mouse).
24 hours after inoculation with C. albicans, the animals were randomised into the following treatment groups (10 mice/group): • 1. […] Compound under investigation: 50 mg/kg/day (two 25 mg/kg treatments twice daily at 12 hour intervals) • 3. Compound under investigation; 10 mg/kg/day (two 5 mg/kg treatments twice daily at 12 hour intervals) • 4. Control (placebo)
The compounds were administered orally (suspension in PEG 200, 0.2 ml/mouse) for 10 consecutive days and the animals were observed until day 30. The survival curves between the various treatment groups and between these groups and the control group were evaluated using the Kaplan-Meier method.

[3] = Aspergillus fumigatus strain 34
[4] = Aspergillus fumigatus strain 99-2135

T5 sequence (P11712 whole entry): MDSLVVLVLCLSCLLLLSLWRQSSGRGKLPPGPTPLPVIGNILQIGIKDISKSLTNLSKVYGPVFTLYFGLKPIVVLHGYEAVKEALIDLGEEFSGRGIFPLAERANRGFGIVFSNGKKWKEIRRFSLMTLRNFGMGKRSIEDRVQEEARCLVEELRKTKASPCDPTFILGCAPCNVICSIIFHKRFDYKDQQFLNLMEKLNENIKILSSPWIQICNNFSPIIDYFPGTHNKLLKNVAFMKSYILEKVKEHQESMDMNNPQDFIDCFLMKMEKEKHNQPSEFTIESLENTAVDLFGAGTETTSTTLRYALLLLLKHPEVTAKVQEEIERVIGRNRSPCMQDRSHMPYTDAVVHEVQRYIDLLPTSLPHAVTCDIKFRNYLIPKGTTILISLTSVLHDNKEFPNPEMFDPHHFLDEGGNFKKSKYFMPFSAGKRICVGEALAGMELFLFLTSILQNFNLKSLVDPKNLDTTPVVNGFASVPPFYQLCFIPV
T1 sequence (P08684 whole entry): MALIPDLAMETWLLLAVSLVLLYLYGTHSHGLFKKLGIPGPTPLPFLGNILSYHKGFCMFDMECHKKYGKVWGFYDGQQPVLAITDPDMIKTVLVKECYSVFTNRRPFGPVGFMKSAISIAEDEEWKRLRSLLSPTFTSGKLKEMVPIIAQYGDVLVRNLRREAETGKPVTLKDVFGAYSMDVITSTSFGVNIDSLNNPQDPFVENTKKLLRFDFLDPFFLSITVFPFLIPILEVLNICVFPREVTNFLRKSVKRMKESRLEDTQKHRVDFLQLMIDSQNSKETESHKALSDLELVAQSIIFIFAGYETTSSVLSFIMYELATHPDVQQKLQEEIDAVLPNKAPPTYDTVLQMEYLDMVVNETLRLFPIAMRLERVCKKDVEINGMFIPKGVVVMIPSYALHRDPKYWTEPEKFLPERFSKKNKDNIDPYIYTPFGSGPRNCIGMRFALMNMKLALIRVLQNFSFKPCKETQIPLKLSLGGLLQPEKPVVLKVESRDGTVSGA
T3 sequence (P33261 whole entry): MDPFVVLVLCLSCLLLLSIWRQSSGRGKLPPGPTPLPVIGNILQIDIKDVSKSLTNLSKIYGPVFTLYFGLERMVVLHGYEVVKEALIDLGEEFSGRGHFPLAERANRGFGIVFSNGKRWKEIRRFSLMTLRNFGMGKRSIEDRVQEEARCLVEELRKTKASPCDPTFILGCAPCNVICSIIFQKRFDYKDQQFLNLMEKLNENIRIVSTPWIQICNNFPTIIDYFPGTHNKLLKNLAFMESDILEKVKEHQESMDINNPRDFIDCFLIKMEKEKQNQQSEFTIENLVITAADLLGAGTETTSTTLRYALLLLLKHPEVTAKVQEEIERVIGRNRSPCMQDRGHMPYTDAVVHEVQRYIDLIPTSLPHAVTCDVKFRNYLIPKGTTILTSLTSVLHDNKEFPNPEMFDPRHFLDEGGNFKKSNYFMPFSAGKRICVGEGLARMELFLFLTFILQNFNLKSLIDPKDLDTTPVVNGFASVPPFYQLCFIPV
T2 sequence (P10635 whole entry): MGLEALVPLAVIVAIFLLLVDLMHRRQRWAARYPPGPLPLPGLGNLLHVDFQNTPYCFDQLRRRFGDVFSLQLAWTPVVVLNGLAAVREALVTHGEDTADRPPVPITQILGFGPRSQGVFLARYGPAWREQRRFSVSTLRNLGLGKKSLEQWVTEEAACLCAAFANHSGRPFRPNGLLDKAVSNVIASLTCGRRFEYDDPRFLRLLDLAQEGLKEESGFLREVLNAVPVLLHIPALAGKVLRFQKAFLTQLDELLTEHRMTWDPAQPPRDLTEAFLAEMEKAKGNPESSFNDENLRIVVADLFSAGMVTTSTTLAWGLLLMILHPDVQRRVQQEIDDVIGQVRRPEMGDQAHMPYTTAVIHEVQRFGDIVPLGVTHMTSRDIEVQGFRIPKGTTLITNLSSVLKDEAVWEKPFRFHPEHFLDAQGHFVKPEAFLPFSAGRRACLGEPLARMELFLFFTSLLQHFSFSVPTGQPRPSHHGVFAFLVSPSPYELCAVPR

Molecule | IC50 (minimum concentration to bring about 50% inhibition) (Candida albicans [1]; Candida albicans strain 21) | IC50 (minimum concentration to bring about 50% inhibition) (Aspergillus fumigatus; [4]) | IC50 (CYP3A4) | IC50 (CYP2D6) | IC50 (CYP2C19) | IC50 (CYP1A2) | IC50 (CYP2C9) | IC50 (minimum concentration to bring about 50% inhibition) (Candida glabrata) | IC50 (minimum concentration to bring about 50% inhibition) (Candida albicans [1]; Candida albicans strain gen-45) | IC50 (minimum concentration to bring about 50% inhibition) (Candida parapsilosis) | also measured
CCC(C)n1ncn(-c2ccc(N3CCN(c4ccc(OCC5COC(Cn6cncn6)(c6cccc[n+]6[O-])O5)cc4)CC3)cc2)c1=O (racemic) [Example 17, cis(±)-4-{4-[4-{4-[2-(1-oxy-pyridin-2-yl)-2-(1H-1,2,4-triazol-1-yl-methyl)-1,3dioxolan-4-yl-methoxy]phenyl}piperazin-1-yl]-phenyl}-2-[(1,R/S)-1-methylpropyl]-2,4-dihydro-3H-1,2,4-triazol-3-one] | 38000 µg/mL (≈ 58100 µM) | – | – | – | – | – | – | – | – | – | IC50 (minimum concentration to bring about 50% inhibition) (Aspergillus fumigatus; [3]): >64
CCC(C)n1ncn(-c2ccc(N3CCN(c4ccc(OCC5COC(Cn6cncn6)(c6cc[n+]([O-])cc6)O5)cc4)CC3)cc2)c1=O (racemic) [Example 18, cis(±)-4-{4-[4-{4-[2-(1-oxy-pyridin-4-yl)-2-(1H-1,2,4-triazol-1-yl-methyl)-1,3-dioxolan-4-yl-methoxy]phenyl}piperazin-1-yl]phenyl}-2-[(1,R/S)-1-methylpropyl]-2,4-dihydro-3H-1,2,4-triazol-3-one] | 78000 µg/mL (≈ 119000 µM) | – | – | – | – | – | – | – | – | – | –
CC[C@H](C)n1ncn(-c2ccc(N3CCN(c4ccc(OC[C@H]5CO[C@@](Cn6cncn6)(c6ccccn6)O5)cc4)CC3)cc2)c1=O (relative stereo) [Example 13, cis(−)-4-{4-[4-{4-[2-(pyridin-2-yl)-2-(1H-1,2,4-triazol-1-yl-methyl)-1,3-dioxolan-4-yl-methoxy]phenyl}piperazin-1-yl]-phenyl}-2-[(1,S)-1-methylpropyl]-2,4-dihydro-3H-1,2,4-triazol-3-one] | – | 0.25 | 0.46 ± 0.37 µM | > 100 µM | 28.4 ± 8.8 µM | > 100 µM | 27.2 ± 6.7 µM | 1000 µg/mL (≈ 1570 µM) | ≦0.03 mg/ml | ≦0.03 mg/ml | –
CC[C@H](C)n1ncn(-c2ccc(N3CCN(c4ccc(OC[C@H]5CO[C@@](Cn6cncn6)(c6ccccn6)O5)cc4)CC3)cc2)c1=O (relative stereo) [Example 14, cis(+)-4-{4-[4-{4-[2-(pyridin-2-yl)-2-(1H-1,2,4-triazol-1-yl-methyl)-1,3-dioxolan-4-yl-methoxy]phenyl}piperazin-1-yl]-phenyl}-2-[(1,S)-1-methylpropyl]-2,4-dihydro-3H-1,2,4-triazol-3-one] | – | 0.5 | 0.19 ± 0.08 µM | > 100 µM | 27.9 ± 0.8 µM | > 100 µM | 40 ± 11.2 µM | 2000 µg/mL (≈ 3140 µM) | ≦0.03 mg/ml | 0.06 | –
CC[C@@H](C)n1ncn(-c2ccc(N3CCN(c4ccc(OC[C@H]5CO[C@@](Cn6cncn6)(c6ccccn6)O5)cc4)CC3)cc2)c1=O (relative stereo) [Example 15, cis(−)-4-{4-[4-{4-[2-(pyridin-2-yl)-2-(1H-1,2,4-triazol-1-yl-methyl)-1,3-dioxolan-4-yl-methoxy]phenyl}piperazin-1-yl]-phenyl}-2-[(1,R)-1-methylpropyl]-2,4-dihydro-3H-1,2,4-triazol-3-one] | – | 0.12 | 0.41 ± 0.13 µM | 84 ± 39.4 µM | 25.5 ± 4.3 µM | > 100 µM | 26.1 ± 1.3 µM | 250 µg/mL (≈ 392 µM) | ≦0.03 mg/ml | ≦0.03 mg/ml | –
CC[C@@H](C)n1ncn(-c2ccc(N3CCN(c4ccc(OC[C@H]5CO[C@@](Cn6cncn6)(c6ccccn6)O5)cc4)CC3)cc2)c1=O (relative stereo) [Example 16, cis(+)-4-{4-[4-{4-[2-(pyridin-2-yl)-2-(1H-1,2,4-triazol-1-yl-methyl)-1,3-dioxolan-4-yl-methoxy]phenyl}piperazin-1-yl]-phenyl}-2-[(1,R)-1-methylpropyl]-2,4-dihydro-3H-1,2,4-triazol-3-one] | – | 0.25 | 0.29 ± 0.01 µM | > 100 µM | 43.1 ± 15 µM | > 100 µM | 37.5 ± 6.8 µM | 500 µg/mL (≈ 784 µM) | ≦0.03 mg/ml | 0.06 | –
CCC(C)n1ncn(-c2ccc(N3CCN(c4ccc(OCC5COC(Cn6cncn6)(c6ccc(Cl)cc6Cl)O5)cc4)CC3)cc2)c1=O (stereo not shown) [Itraconazole, reference compound] | – | – | – | > 100 µM | 0.2 ± 0.06 µM | > 100 µM | 1.6 ± 0.2 µM | – | – | – | IC50 (Aspergillus fumigatus; read-out: IC50 (minimum concentration to bring about 50% inhibition), Aspergillus fumigatus strain 34): 1000 µg/mL (≈ 1420 µM); IC50 (Aspergillus fumigatus; read-out: IC50 (minimum concentration to bring about 50% inhibition), Aspergillus fumigatus strain 99-2135): 250 µg/mL (≈ 354 µM); Surviving mice 21 days after infection (Candida albicans [2]): 0%; Average survival (days) ± S.D. (Candida albicans [2]; observed until day 30): 9.2 ± 1.1 days; IC50 (Candida glabrata; Nakaseomyces glabratus, read-out: IC50 (minimum concentration to bring about 50% inhibition)): 500 µg/mL (≈ 709 µM); IC50 (Candida albicans [1]; Candida albicans, read-out: IC50 (minimum concentration to bring about 50% inhibition)): ≤ 30 µg/mL; IC50 (Candida parapsilosis; Lodderomyces parapsilosis, ATCC22019, read-out: IC50 (minimum concentration to bring about 50% inhibition)): 120 µg/mL (≈ 170 µM)
cis(±)-4-{4-[4-{4-[2-(pyridin-3-yl)-2-(1H-1,2,4-triazol-1-yl-methyl)-1,3-dioxolan-4-yl-methoxy]phenyl}-1-piperazinyl]-phenyl}-2-(1-(R,S)methylpropyl)-2,4-dihydro-3H-1,2,4-triazol-3-one [Example 11] | – | – | 0.7 ± 0.1 µM | – | 31.5 ± 3.9 µM | – | 64.2 ± 6.2 µM | – | – | – | –
cis(±)-4-{4-[4-{4-[2-(pyridin-4-yl)-2-(1H-1,2,4-triazol-1-yl-methyl)-1,3-dioxolan-4-yl-methoxy]phenyl}-1-piperazinyl]-phenyl}-2-(1-(R,S)methylpropyl)-2,4-dihydro-3H-1,2,4-triazol-3-one [Example 10] | 39000 µg/mL | – | – | – | – | – | – | – | – | – | IC50 (minimum concentration to bring about 50% inhibition) (Aspergillus fumigatus; [3]): 8
cis(±)-4-{4-[4-{4-[2-(thiazol-2-yl)-2-(1H-1,2,4-triazol-1-yl-methyl)-1,3-dioxolan-4-yl-methoxy]phenyl}-1-piperazinyl]-phenyl}-2-(1-(R,S)methylpropyl)-2,4-dihydro-3H-1,2,4-triazol-3-one [Example 12] | – | – | 0.3 ± 0.1 µM | – | 10.9 ± 0.4 µM | – | 18.2 ± 0.3 µM | – | – | – | –
